Measured values taken from article PMC9015904 (ChemMedChem, 2022).
Like-named read-outs stand apart in the source and are kept apart here. Marks after values point to notes of the source that are not given here.

Legend:
[1] = target: T1, hKOR (Homo sapiens, UniProt P41145); test: biochemical; format: binding
[2] = target: T2, hMOR (Homo sapiens, UniProt P35372); test: biochemical; format: binding
[3] = target: T1, hKOR; test: biochemical; format: biochemical
[4] = target: T2, hMOR; test: GTPγS functional assay, MOR; format: biochemical
[5] = target: T3, hDOR (Homo sapiens, UniProt P41143); test: Competitive radioligand binding assay, DOR
[6] = target: T3, hDOR; test: GTPγS functional assay, DOR; format: biochemical
[7] = test system: male C57BL/6NHsd mice; settings: mouse, in vivo
[8] = test system: male C57BL/6NHsd mice; settings: mouse, in vivo; remark: listed apart in the source
[9] = test system: male C57BL/6NHsd mice; settings: mouse, in vivo; remark: listed apart in the source

T1 sequence (P41145 whole entry): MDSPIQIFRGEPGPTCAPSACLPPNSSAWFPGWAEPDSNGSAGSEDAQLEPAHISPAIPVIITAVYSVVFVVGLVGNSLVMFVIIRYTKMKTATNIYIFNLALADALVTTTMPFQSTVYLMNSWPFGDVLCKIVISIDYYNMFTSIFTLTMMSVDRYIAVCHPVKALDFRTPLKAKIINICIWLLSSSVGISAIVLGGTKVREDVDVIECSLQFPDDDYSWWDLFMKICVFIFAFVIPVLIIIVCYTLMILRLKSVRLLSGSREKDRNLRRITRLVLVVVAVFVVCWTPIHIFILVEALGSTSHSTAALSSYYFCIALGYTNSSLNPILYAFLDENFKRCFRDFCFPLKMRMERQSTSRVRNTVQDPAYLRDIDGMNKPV
T2 sequence (P35372 whole entry): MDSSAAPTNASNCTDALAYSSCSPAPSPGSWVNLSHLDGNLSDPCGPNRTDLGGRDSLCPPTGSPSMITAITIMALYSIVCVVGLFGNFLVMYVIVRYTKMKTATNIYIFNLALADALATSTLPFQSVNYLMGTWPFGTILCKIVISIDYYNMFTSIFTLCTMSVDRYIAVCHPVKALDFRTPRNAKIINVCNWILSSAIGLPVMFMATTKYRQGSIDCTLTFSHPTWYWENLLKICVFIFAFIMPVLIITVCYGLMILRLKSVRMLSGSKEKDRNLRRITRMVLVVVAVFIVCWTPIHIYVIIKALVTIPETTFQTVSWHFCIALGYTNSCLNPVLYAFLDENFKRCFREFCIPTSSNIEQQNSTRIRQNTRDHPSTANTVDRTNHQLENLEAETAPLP
T3 sequence (P41143 whole entry): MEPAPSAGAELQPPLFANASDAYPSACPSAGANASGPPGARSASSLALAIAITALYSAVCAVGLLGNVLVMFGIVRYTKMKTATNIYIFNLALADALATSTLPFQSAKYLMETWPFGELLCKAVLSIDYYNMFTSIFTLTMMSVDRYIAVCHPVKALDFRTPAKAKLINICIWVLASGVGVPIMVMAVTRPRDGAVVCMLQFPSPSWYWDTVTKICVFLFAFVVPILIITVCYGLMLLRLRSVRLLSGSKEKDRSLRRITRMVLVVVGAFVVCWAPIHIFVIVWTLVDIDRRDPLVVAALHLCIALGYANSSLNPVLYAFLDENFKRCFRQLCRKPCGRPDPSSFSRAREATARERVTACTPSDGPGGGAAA

SMILES | Kd [1] | Kd [2] | EC50 [3] | Full or partial agonist (KOR) [3] | EC50 [4] | further results
COC(=O)[C@@H]1C[C@H](OC(=O)C2=CCc3ccccc32)C(=O)[C@H]2[C@@]1(C)CC[C@H]1C(=O)O[C@H](c3ccoc3)C[C@]21C [Compound 1, Methyl-(2S,4aR,6aR,7R,9S,10aS,10bR)-9-((1H-indene-3-carbonyl)oxy)-2-(furan-3-yl)-6a,10b-dimethyl-4,10-dioxododecahydro-2H-benzo[f]isochromene-7-carboxylate] | 0.0623 µM | 0.531 µM | 1.57 µM | 1570 (548–4500)^[c] | > 10 µM | 
COC(=O)[C@@H]1C[C@H](OC(=O)C2=Cc3ccccc3C2)C(=O)[C@H]2[C@@]1(C)CC[C@H]1C(=O)O[C@H](c3ccoc3)C[C@]21C [Compound 2, Methyl-(2S,4aR,6aR,7R,9S,10aS,10bR)-9-((1H-indene-2-carbonyl)oxy)-2-(furan-3-yl)-6a,10b-dimethyl-4,10-dioxododecahydro-2H-benzo[f]isochromene-7-carboxylate] | 0.0497 µM | 0.538 µM |  | 853 (456–1600)^[d] |  | fold preference towards KOR (binding affinity, KOR vs MOR) [1]: 11 fold; Kd [5]: 0.714 µM; fold higher potency at MOR (vs KOR) ([4]; from GTPγS EC50 values): 17 fold; EC50 [6]: 2.35 µM; latency to hind paw lick or flutter compared to vehicle [7]: significant increase in the latency to paw response; latency to tail withdrawal compared to vehicle [8]: Neither salvinorin A, herkinorin, nor compounds 2 or 10 demonstrated significant antinociception; distance traveled in the maze compared to vehicle ([9]; male, C57BL/6NHsd): neither salvinorin A, nor compound 2, altered the distance; time spent in the open arms compared to vehicle [9]: significantly increased the amount of time spent on the open arms of the maze
COC(=O)[C@@H]1C[C@H](OC(=O)C2Cc3ccccc3C2)C(=O)[C@H]2[C@@]1(C)CC[C@H]1C(=O)O[C@H](c3ccoc3)C[C@]21C [Compound 3, Methyl-(2S,4aR,6aR,7R,9S,10aS,10bR)-9-((2,3-dihydro-1H-indene-2-carbonyl)oxy)-2-(furan-3-yl)-6a,10b-dimethyl-4,10-dioxododecahydro-2H-benzo[f]isochromene-7-carboxylate] | 1.27 µM | 3.02 µM | 3 µM | 3000 (409–22000)^[d] | > 10 µM | 
COC(=O)[C@@H]1C[C@H](OC(=O)c2nc3ccccc3o2)C(=O)[C@H]2[C@@]1(C)CC[C@H]1C(=O)O[C@H](c3ccoc3)C[C@]21C [Compound 4, (2S,4aR,6aR,7R,9S,10aS,10bR)-2-(furan-3-yl)-7-(methoxycarbonyl)-6a,10b-dimethyl-4,10-dioxododecahydro-2H-benzo[f]isochromen-9-yl benzo[d]oxazole-2-carboxylate] |  |  |  |  |  | binding affinity towards KOR, in words [1]: exhibited no affinity to any of the opioid receptors; binding affinity towards MOR, in words [2]: exhibited no affinity to any of the opioid receptors; binding affinity towards DOR, in words [5]: exhibited no affinity to any of the opioid receptors
COC(=O)[C@@H]1C[C@H](OC(=O)c2n[nH]c3ccccc23)C(=O)[C@H]2[C@@]1(C)CC[C@H]1C(=O)O[C@H](c3ccoc3)C[C@]21C [Compound 5, (2S,4aR,6aR,7R,9S,10aS,10bR)-2-(furan-3-yl)-7-(methoxycarbonyl)-6a,10b-dimethyl-4,10-dioxododecahydro-2H-benzo[f]isochromen-9-yl 1H-indazole-3-carboxylate] |  | 0.208 µM |  |  | > 10 µM | 
COC(=O)[C@@H]1C[C@H](OC(=O)c2nc3ccccc3[nH]2)C(=O)[C@H]2[C@@]1(C)CC[C@H]1C(=O)O[C@H](c3ccoc3)C[C@]21C [Compound 6, (2S,4aR,6aR,7R,9S,10aS,10bR)-2-(furan-3-yl)-7-(methoxycarbonyl)-6a,10b-dimethyl-4,10-dioxododecahydro-2H-benzo[f]isochromen-9-yl 1H-benzo[d]imidazole-2-carboxylate] |  | 0.0832 µM |  |  | > 10 µM | binding affinity towards MOR, in words [2]: exhibited selective affinity towards MOR
COC(=O)[C@@H]1C[C@H](OC(=O)c2cc3c(F)cccc3[nH]2)C(=O)[C@H]2[C@@]1(C)CC[C@H]1C(=O)O[C@H](c3ccoc3)C[C@]21C [Compound 7, (2S,4aR,6aR,7R,9S,10aS,10bR)-2-(furan-3-yl)-7-(methoxycarbonyl)-6a,10b-dimethyl-4,10-dioxododecahydro-2H-benzo[f]isochromen-9-yl 4-fluoro-1H-indole-2-carboxylate] | 0.0573 µM | 0.0131 µM | 0.877 µM | 877 (564–1360)^[d] | 0.211 µM | 
COC(=O)[C@@H]1C[C@H](OC(=O)c2cc3cc(F)ccc3[nH]2)C(=O)[C@H]2[C@@]1(C)CC[C@H]1C(=O)O[C@H](c3ccoc3)C[C@]21C [Compound 8, (2S,4aR,6aR,7R,9S,10aS,10bR)-2-(furan-3-yl)-7-(methoxycarbonyl)-6a,10b-dimethyl-4,10-dioxododecahydro-2H-benzo[f]isochromen-9-yl 5-fluoro-1H-indole-2-carboxylate] | 0.0978 µM |  | 1.11 µM | 1110 (441–2790)^[c] |  | binding affinity towards MOR, in words [2]: loss of binding affinity to MOR
COC(=O)[C@@H]1C[C@H](OC(=O)c2cc3ccc(F)cc3[nH]2)C(=O)[C@H]2[C@@]1(C)CC[C@H]1C(=O)O[C@H](c3ccoc3)C[C@]21C [Compound 9, (2S,4aR,6aR,7R,9S,10aS,10bR)-2-(furan-3-yl)-7-(methoxycarbonyl)-6a,10b-dimethyl-4,10-dioxododecahydro-2H-benzo[f]isochromen-9-yl 6-fluoro-1H-indole-2-carboxylate] | 0.017 µM | 0.0397 µM | 0.419 µM | 419 (240–729)^[c] | 0.973 µM | 
COC(=O)[C@@H]1C[C@H](OC(=O)c2cc3cccc(F)c3[nH]2)C(=O)[C@H]2[C@@]1(C)CC[C@H]1C(=O)O[C@H](c3ccoc3)C[C@]21C [Compound 10, (2S,4aR,6aR,7R,9S,10aS,10bR)-2-(furan-3-yl)-7-(methoxycarbonyl)-6a,10b-dimethyl-4,10-dioxododecahydro-2H-benzo[f]isochromen-9-yl 7-fluoro-1H-indole-2-carboxylate] | 0.0538 µM | 0.0584 µM | 0.0365 µM | 36.5 (13.6–98.2)^[d] | 0.132 µM | fold preference towards KOR (binding affinity, KOR vs MOR) [1]: equal binding affinity towards KOR and MOR; fold higher potency at KOR (vs MOR) [3]: ~ 4 fold; latency to hind paw lick or flutter compared to vehicle [7]: Neither salivinorin A, herkinorin, nor compound 10 were observed to significantly influence the latency to paw response; latency to tail withdrawal compared to vehicle [8]: Neither salvinorin A, herkinorin, nor compounds 2 or 10 demonstrated significant antinociception; distance traveled in the maze compared to vehicle [9]: reduction in the total distance traveled; time spent in the open arms compared to vehicle [9]: Neither herkinorin nor compound 10 significantly influenced anxiety-like behavior
COC(=O)[C@@H]1C[C@H](OC(=O)c2nc3ccccc3s2)C(=O)[C@H]2[C@@]1(C)CC[C@H]1C(=O)O[C@H](c3ccoc3)C[C@]21C [Compound 11, (2S,4aR,6aR,7R,9S,10aS,10bR)-2-(furan-3-yl)-7-(methoxycarbonyl)-6a,10b-dimethyl-4,10-dioxododecahydro-2H-benzo[f]isochromen-9-yl benzo[d]thiazole-2-carboxylate] | 0.0917 µM |  | 0.294 µM | 294 (179–482)^[d] |  | binding affinity towards KOR, in words [1]: exhibited selective affinity towards KOR
COC(=O)[C@@H]1C[C@H](OC(=O)c2cc3ccccn3c2)C(=O)[C@H]2[C@@]1(C)CC[C@H]1C(=O)O[C@H](c3ccoc3)C[C@]21C [Compound 12, (2S,4aR,6aR,7R,9S,10aS,10bR)-2-(furan-3-yl)-7-(methoxycarbonyl)-6a,10b-dimethyl-4,10-dioxododecahydro-2H-benzo[f]isochromen-9-yl indolizine-2-carboxylate] | 0.0184 µM | 1.39 µM | 1.56 µM | 1560 (213–11500)^[c] | 0.2 µM | Kd [5]: 0.48 µM; EC50 [6]: 0.742 µM
COC(=O)[C@@H]1C[C@H](OC(=O)[C@H]2Cc3ccccc3N2)C(=O)[C@H]2[C@@]1(C)CC[C@H]1C(=O)O[C@H](c3ccoc3)C[C@]21C [Compound 13, (2S,4aR,6aR,7R,9S,10aS,10bR)-2-(furan-3-yl)-7-(methoxycarbonyl)-6a,10b-dimethyl-4,10-dioxododecahydro-2H-benzo[f]isochromen-9-yl (R)-indoline-2-carboxylate] | 0.13 µM | 0.00904 µM | 2.26 µM | 2260 (1360–3760)^[c] | 0.84 µM | fold preference towards MOR (binding affinity, MOR vs KOR) [2]: 14 fold
COC(=O)[C@@H]1C[C@H](OC(=O)[C@@H]2Cc3ccccc3N2)C(=O)[C@H]2[C@@]1(C)CC[C@H]1C(=O)O[C@H](c3ccoc3)C[C@]21C [Compound 14, (2S,4aR,6aR,7R,9S,10aS,10bR)-2-(furan-3-yl)-7-(methoxycarbonyl)-6a,10b-dimethyl-4,10-dioxododecahydro-2H-benzo[f]isochromen-9-yl (S)-indoline-2-carboxylate] | 0.0321 µM | 0.0779 µM | 0.361 µM | 361 (216–602)^[d] | > 10 µM | fold preference towards KOR (binding affinity, KOR vs MOR) [1]: ~ 2 fold
CN1CC[C@]23c4c5ccc(O)c4O[C@H]2[C@@H](O)C=C[C@H]3[C@H]1C5 [Morphine, reference compound] |  |  |  |  |  | latency to hind paw lick or flutter compared to vehicle [7]: significant increase in the latency to paw response; latency to tail withdrawal compared to vehicle [8]: significantly increased the latency to tail withdrawal
